Among the data in patent US12522587B2, “Cancer treatments targeting cancer stem cells” (Remedy Plan, Inc., priority 2018, dated 2026) are IC50 values, retold here.

In one assay the test system is AGS cells. Briefly: Cell viability in AGS cells (CellTiter Glo2, 8-point dose response, 4 days). It counts as cell-based, human. The method, then:
AGS cells were treated with DMSO (no drug control) or each compound in Table 5 in an 8-point dose response for 4 days. Cell viability was measured using CellTiter Glo2. The IC50 of each compound was determined using CDD Vault.

A further assay has as its system MV-4-11 cells. Briefly: Cell viability in MV-4-11 cells (CellTiter Glo2, 4 days). It is filed as cell-based. Conditions: Homo sapiens, MV4-11, 96 h. Here is the method:
Approximately 10,000 MV-4-11 cells per well of a 96-well plate were treated with DMSO (no drug control) or each compound in Table 6 in an 8-point dose response for 4 days. Cell viability was measured using CellTiter Glo2. The IC50 of each compound was determined using CDD Vault.
On the technique in general: Cellular ATP, detected with luciferase, serves as a proxy for viable cell number.

Another assay deals with RS4;11 cells. Briefly: Cell viability in RS4;11 cells (CellTiter Glo2, 4 days). It is filed as cell-based. Conditions: Homo sapiens, 96 h. Here is the method: Approximately 10,000 RS4;11 cells per well of a 96-well plate were treated with DMSO (no drug control) or each compound in Table 6 in an 8-point dose response for 4 days. Cell viability was measured using CellTiter Glo2. The IC50 of each compound was determined using CDD Vault.

Each structure is given as a SMILES string. Where two headings read alike, the source gives them in different places.

Regarding `CCC(=O)N(C)c1ccc(-c2ccc(C(=O)NCc3cccnc3)cn2)cc1C` [Compound I-232, 6-(3-methyl-4-(N-methylpropionamido)phenyl)-N-(pyridin-3-ylmethyl)nicotinamide], the IC50 in the assay on AGS cells (Homo sapiens, AGS, 96 h) was 1.28 µM; in the assay with MV-4-11 cells, 1.22 µM; in the assay with RS4;11 cells, 0.231 µM.
On to `CCC(=O)N1CCc2cc(-c3ccc(C(=O)NCc4cccnc4)cc3)cc(C)c21` [Compound I-17, 4-(7-methyl-1-propionylindolin-5-yl)-N-(pyridin-3-ylmethyl)benzamide], for which the IC50 in the assay on AGS cells was found to be 1.02 µM; in the assay on AGS cells (Homo sapiens, AGS, 96 h), 1.05 µM; with MV-4-11 cells, 0.67 µM; in the assay on RS4;11 cells, 0.27 µM.
Regarding `CCC(=O)N(C)c1ccc(-c2ccc(C(=O)NCc3cccnc3)cc2)c(Cl)c1` [Compound I-224, 2′-chloro-4′-(N-methylpropionamido)-N-(pyridin-3-ylmethyl)-[1,1′-biphenyl]-4-carboxamide], the IC50 in the assay with AGS cells (Homo sapiens, AGS, 96 h) is 1.48 µM; with MV-4-11 cells, 1.1 µM; in the assay on RS4;11 cells, 5.32 µM.
On to `CCC(=O)N(C)Cc1ccc(-c2ccc(C(=O)NCc3cccnc3)cc2)cc1` [Compound I-228, 4′-((N-methylpropionamido)methyl)-N-(pyridin-3-ylmethyl)-[1,1′-biphenyl]-4-carboxamide], for which the IC50 in the assay with AGS cells (Homo sapiens, AGS, 96 h) came out at 3.81 µM; in the assay on MV-4-11 cells, 0.765 µM; with RS4;11 cells, 1.93 µM.
In the case of `CCOC(=O)N(C)c1ccc(-c2ccc(C(=O)NCc3cccnc3)cc2)cc1` [Compound I-231, ethyl methyl(4′-((pyridin-3-ylmethyl)carbamoyl)-[1,1′-biphenyl]-4-yl)carbamate], the IC50 was 3.41 µM with AGS cells (Homo sapiens, AGS, 96 h); 0.741 µM in the assay on MV-4-11 cells; 2.92 µM in the assay on RS4;11 cells.
Take `CCC(=O)N1CCc2cc(-c3ccc(C(=O)NCc4cccnc4)cn3)ccc21` [Compound I-54, 6-(1-propionylindolin-5-yl)-N-(pyridin-3-ylmethyl)nicotinamide]: the IC50 with AGS cells is more than 16.9 µM; in the assay with AGS cells (Homo sapiens, AGS, 96 h), more than 17 µM; with MV-4-11 cells it was 10.4 µM; in the assay on RS4;11 cells, 4.92 µM.
On to `CC(=O)N(C)c1ccc(-c2ccc(C(=O)NCc3cccnc3)nc2)cc1` [Compound I-202, 5-(4-(N-methylacetamido)phenyl)-N-(pyridin-3-ylmethyl)picolinamide], for which the IC50 stood at 17.5 µM in the assay with AGS cells; 10.3 µM in the assay on AGS cells (Homo sapiens, AGS, 96 h); 1.47 µM in the assay with MV-4-11 cells; 2.55 µM in the assay on RS4;11 cells.

For orientation: IC50 means the concentration that gives 50% inhibition. A higher IC50 goes with lower potency.
